We go through 1 substance from publication PMC3493588 (2012).

The assay relates to d(CCG)8C (KR-2) (DNA, single strand) CCGCCGCCGCCGCCGCCGCCGCCGC
In words: tryptophan fluorescence quenching titration. Conditions: Na+ (0.01 M NaCl); 0.02 M Hepes, pH 7.5-7.7, 0.0001 M EDTA, 20 °C; half salt-reversal at 0.06 M Na+; weaker at higher NaCl.

With H-RWRWKL-NH2, the binding entry was “yes”.
